In patent US20040171489A1, “Synergistic active compound combinations for controlling harmful plants” (priority 1998, published 2004):

Key:
[1] = system: winter barley; test: Example 9 field trials, application 1-3 leaf stage broad-leaved weeds: crop damage; type: in vivo, Hordeum vulgare
Experimental: (§1) The herbicidal efficacy of the active compounds or active compound mixtures was scored visually using the treated plots in comparison to untreated control plots. The damage and development of all above-ground parts of the plants were recorded. Scoring was carried out using a percentage scale (100% effect=all plants killed; 50% effect=50% of the plants and the green parts of the plants killed; 0% effect=no noticeable effect=like control plot. The scores of in each case 4 plots were averaged.
(§2) If the observed activity values already exceed the formal sum of the values for the trials with the individual applications, they also exceed the expected value according to Colby which is calculated using the following formula and which is likewise considered to be an indication of synergism (cf. S. R. Colby; in Weeds 15 (1967) p. 20 to 22):
(§3) Crop plants were grown outdoors on plots under natural outdoor conditions, and seeds or rhizome pieces of typical harmful plants were laid out or the natural weed growth was utilized. Treatment with the compositions according to the invention was carried out after the harmful plants had emerged and the crop plants were, generally, at the 2- to 4-leaf stage; in some cases (as stated), application of individual active compounds or active compound combinations was carried out pre-emergence (cf. Section 1) or post-emergence (cf. Section 2) or as a sequential treatment partly pre-emergence and/or post-emergence. After the application, for example 2, 4, 6 and 8 weeks after the application, the effect of the preparations was scored visually by comparison with untreated controls (cf. scoring in Section 1). In the field trial as well, the compositions according to the invention have synergistic herbicidal activity against a broad spectrum of economically important weed grasses and broad-leaved weeds. […] Moreover, the effects in essential phases of the scoring period were above the expected values according to Colby, also indicating synergism. […]

[2] = system: Capsella bursa-pastoris; test: Example 9 field trials, application 1-3 leaf stage broad-leaved weeds: herbicidal effect; type: in vivo; conditions: 120 to 160 days after application
Experimental: as §1, §2
(§4) Crop plants were grown outdoors on plots under natural outdoor conditions, and seeds or rhizome pieces of typical harmful plants were laid out or the natural weed growth was utilized. Treatment with the compositions according to the invention was carried out after the harmful plants had emerged and the crop plants were, generally, at the 2- to 4-leaf stage; in some cases (as stated), application of individual active compounds or active compound combinations was carried out pre-emergence (cf. Section 1) or post-emergence (cf. Section 2) or as a sequential treatment partly pre-emergence and/or post-emergence. After the application, for example 2, 4, 6 and 8 weeks after the application, the effect of the preparations was scored visually by comparison with untreated controls (cf. scoring in Section 1). In the field trial as well, the compositions according to the invention have synergistic herbicidal activity against a broad spectrum of economically important weed grasses and broad-leaved weeds. […] Moreover, the effects in essential phases of the scoring period were above the expected values according to Colby, also indicating synergism. In contrast, the crop plants were, as a consequence of the treatments with the herbicidal compositions, damaged only to a small degree, if at all.

[3] = system: Alopecurus myosuroides; test: as above; type: in vivo; conditions: 120 to 160 days after application
Experimental: as §1, §2, §4

[4] = system: winter wheat; test: Example 9 field trials, application 1-3 leaf stage broad-leaved weeds: crop damage; type: in vivo, Triticum aestivum
Experimental: as §1, §2, §3

[5] = system: Veronica hederofolia; test: Example 8 field trial, 4-leaf stage: herbicidal effect; type: in vivo; conditions: 28 days after application
Experimental: as §1, §2, §3

[6] = system: winter wheat; test: Example 8 field trial, 4-leaf stage: crop damage; type: in vivo, Triticum aestivum; conditions: 28 days after application
Experimental: as §1, §2, §3

[7] = system: winter wheat; test: Example 10 pre-emergence application, fall: crop damage; type: in vivo, Triticum aestivum; conditions: winter wheat (Triticum aestivum), in vivo, 169 days
Description: (§5) Seeds or rhizome pieces of monocotyledonous and dicotyledonous weed plants are placed in sandy loam soil in pots and covered with soil. The compositions, formulated in the form of concentrated aqueous solutions, wettable powders or emulsion concentrates, are then applied to the surface of the soil cover as aqueous solution, suspension or emulsion at an application rate of 600 to 800 l of water/ha (converted), in various dosages. After the treatment, the pots are placed in a greenhouse and kept under good growth conditions for the weeds. After the test plants have emerged, the damage to the plants or the negative effects on the emergence is scored visually after a test period of 3 to 4 weeks by comparison with untreated controls. As shown by the test results, the compositions according to the invention have good herbicidal pre-emergence activity against a broad spectrum of weed grasses and broad-leaved weeds.
as §1, §2, §4

[8] = system: Galium aparine; test: Example 10 pre-emergence application, fall: herbicidal effect; type: in vivo; conditions: 1000 g of ai/ha; 169 days after application
Description: as §5, §1, §2, §4

[9] = system: Papaver rhoeas; test: Example 1 field trial, 2-4 leaf stage: herbicidal effect; type: in vivo; conditions: 1000 g of ai/ha; 28 days after application
Experimental: as §1, §2, §4

[10] = system: winter barley; test: Example 1 field trial, 2-4 leaf stage: crop damage; type: in vivo, Hordeum vulgare; conditions: winter barley (Hordeum vulgare), in vivo, 28 days
Experimental: as §1, §2, §4

[11] = system: Monochoria vaginalis; test: Example 22 field trial, 2-leaf stage: herbicidal effect; type: in vivo; conditions: 14 days after application
Experimental: as §1, §2, §4

[12] = system: Oryza sativa (rice); test: Example 22 field trial, 2-leaf stage: crop damage; type: in vivo
Experimental: as §1, §2, §4

[13] = system: Sorghum verticilliflorum; test: Example 13 field trial, 2- to 4-leaf stage: herbicidal effect; type: in vivo; conditions: 12.5 g of ai/ha; 17 days after application
Experimental: as §1, §2, §4

[14] = system: summer wheat; test: Example 13 field trial, 2- to 4-leaf stage: crop damage; type: in vivo, Triticum aestivum; conditions: in vivo
Experimental: as §1, §2, §4

[15] = system: winter wheat; test: Example 15 field trial, 2- to 4-leaf stage: crop damage; type: in vivo, Triticum aestivum; conditions: 28 days after application
Experimental: as §1, §2, §4

[16] = system: Lamium amolexicaule; test: Example 15 field trial, 2- to 4-leaf stage: herbicidal effect; type: in vivo; conditions: 28 days after application
Experimental: as §1, §2, §4

[17] = system: Euphorbia heterophylla; test: Example 20 field trial, 3-leaf stage: herbicidal effect; type: in vivo; conditions: 31 days after application
Experimental: as §1, §2, §4

[18] = system: Oryza sativa (rice); test: Example 20 field trial, 3-leaf stage: crop damage; type: in vivo; conditions: in vivo
Experimental: as §1, §2, §4

[19] = system: summer wheat; test: Example 14 field trial, 2- to 4-leaf stage: crop damage; type: in vivo, Triticum aestivum; conditions: 28 days after application
Experimental: The damage and development of all above-ground parts of the plants were recorded.
Crop plants were grown outdoors on plots under natural outdoor conditions, and seeds or rhizome pieces of typical harmful plants were laid out or the natural weed growth was utilized.

[20] = system: Matricaria chamomilla; test: Example 14 field trial, 2- to 4-leaf stage: herbicidal effect; type: in vivo; conditions: 28 days after application
Experimental: as §1, §2, §4

[21] = 100 g of ai/ha, 120 to 160 days after application

With CC(C)(F)c1nc(N)nc(NC(CCCc2ccccc2)C2CC2)n1 (stereo not drawn) [(A2), 4-amino-6-(1-fluoro-1-methylethyl)-2-(4-phenyl-1-cyclopropylbutylamino)-1,3,5-triazine] the “damage, HORVW” value [1, 21] was 0%, the “herbicidal effect, CAPBP” value ([2]; 100 g of ai/ha) was 90% and the “herbicidal effect, ALOMY” value ([3]; 100 g of ai/ha) was 0%. The “damage, TRZAW” value [4, 21] was 0%.

COc1cc(Cl)cc(OCC(C)Nc2nc(N)nc(C(C)(C)F)n2)c1 (stereo not drawn) [(A5), 4-amino-6-(1-fluoro-1-methylethyl)-2-[2-(3-chloro-5-methoxyphenoxy)-1-methylethylamino]-1,3,5-triazine] was tested, and the “herbicidal effect, VERHE” value ([5]; 25 g of ai/ha) was 14%, the “herbicidal effect, VERHE” value ([5]; 50 g of ai/ha) was 22% and the “herbicidal effect, VERHE” value ([5]; 100 g of ai/ha) was 34%. The “damage, TRZAW” value ([6]; 25 g of ai/ha) was 0%, the “damage, TRZAW” value ([6]; 50 g of ai/ha) was 0% and the “damage, TRZAW” value ([6]; 100 g of ai/ha) was 0%.

For CC(C)c1ccc(NC(=O)N(C)C)cc1 [(B1.1.1), isoproturon, reference compound], the “damage, HORVW” value ([1]; winter barley (Hordeum vulgare), in vivo) was 0%, the “damage, TRZAW” value [7] was 0% and the “herbicidal effect, GALAP” value [8] was 15%. For the same molecule, the “herbicidal effect, CAPBP” value ([2]; 2000 g of ai/ha) was 0%, the “herbicidal effect, ALOMY” value ([3]; 2000 g of ai/ha) was 0% and the “herbicidal effect, PAPRH” value [9] was 15%. The “damage, TRZAW” value ([4]; winter wheat (Triticum aestivum), in vivo) was 0% and the “damage, HORVW” value [10] was 0%.

In the case of CCC(CC)Nc1c([N+](=O)[O-])cc(C)c(C)c1[N+](=O)[O-] [(B1.2.2), pendimethalin], the “herbicidal effect, GALAP” value [8] is reported as 30%.

With COP(=S)(OC)SCC(=O)N(c1ccc(Cl)cc1)C(C)(C)C [(B1.6.5), anilofos, reference compound] the “herbicidal effect, MOOVA” value ([11]; 250 g of ai/ha) was 95% and the “damage, ORYSA” value ([12]; 250 g of ai/ha, 14 days after application) was 5%.

C#CCN(C)c1c(C#N)cnn1-c1nn2c(c1Cl)CCCC2 [(B1.6.14), reference compound] was tested, and the “herbicidal effect, MOOVA” value ([11]; 25 g of ai/ha) was 82% and the “damage, ORYSA” value ([12]; in vivo) was 0%.

In the case of COC(=O)c1ccccc1S(=O)(=O)NC(=O)N(C)c1nc(C)nc(OC)n1 [(B2.1.1), tribenuron-methyl], the “herbicidal effect, SORVE” value [13] is reported as 0% and the “damage, TRZAS” value [14] is reported as 0%.

With COc1cc(OC)nc(NC(=O)NS(=O)(=O)N(C)S(C)(=O)=O)n1 [(B2.1.4), amidosulfuron, reference compound] the “damage, TRZAW” value ([15]; 12.5 g of ai/ha) was 0%, the “damage, TRZAW” value ([15]; 25 g of ai/ha) was 0% and the “herbicidal effect, LAMAM” value ([16]; 12.5 g of ai/ha) was 10%. The “herbicidal effect, LAMAM” value ([16]; 25 g of ai/ha) was 25%.

CCOc1ccccc1OS(=O)(=O)NC(=O)Nc1nc(OC)cc(OC)n1 [(B2.1.9), ethoxysulfuron, reference compound] was tested, and the “herbicidal effect, EPHHL” value ([17]; 22.5 g of ai/ha) was 45%, the “herbicidal effect, EPHHL” value ([17]; 45 g of ai/ha) was 65% and the “damage, ORYSA” value [18] was 0%.

For Cc1cc(Cl)ccc1O[C@@H](C)C(=O)O [(B2.2.4), mecoprop-P], the “damage, TRZAS” value ([19]; 750 g of ai/ha) was 0%, the “damage, TRZAS” value ([19]; 1500 g of ai/ha) was 0% and the “herbicidal effect, MATCH” value ([20]; 750 g of ai/ha) was 54%. For the same molecule, the “herbicidal effect, MATCH” value ([20]; 1500 g of ai/ha) was 63%.
